These results are taken from patent US20080139664A1, “ANTI-GLYCATION AGENTS FOR PREVENTING AGE-, DIABETES-, AND SMOKING-RELATED COMPLICATIONS” (NATIONAL RESEARCH COUNCIL OF CANADA, priority 2001, published 2008).

The subject of series [1] is bovine serum albumin (BSA).
For series [2], the system named is bovine serum albumin (BSA). Description: Fluorescamine assay of free primary amino groups of BSA incubated with D-ribose. In kind it is biochemical. The following applies: for Unreacted amino group: free primary amino group on BSA after 5 days at 37° C., agent at 16.8 times IC50, 64% without agent. The method, then: Fluorescamine assay (Yeboah F. et al., J. Agric. Food Chem. 48, 2766-2774 (2000)) was performed on incubated mixtures of BSA and D-ribose, with or without the identified anti-glycation agents. The mixtures contained BSA (0.075 mM protein concentration or 4.53 mM of Lys residue concentration) and D-ribose (50 mM). […] The fluorescamine assay determines the number of free lysine residues of BSA. In this experiment, the final volume of the incubation mixtures was 10 mL and the incubation time was 5 days at 37° C. Prior to the fluorescamine assay, the proteins were isolated by reverse phase HPLC. The protein content was determined using the Bio-Rad protein determination reagent (Bradford method). The fluorescamine assay was done in triplicate.

Series [3] concerns lysozyme. Description: ESI-MS of lysozyme glycoforms after incubation with D-ribose.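 For all read-outs here: lysozyme incubated with D-ribose, with or without anti-glycation agents, then separated by reversed-phase HPLC and analysed by electrospray mass spectrometry.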 The settings on record: 37° C., 5 days; for Peak area as % of total area of all glycoforms, 14,569: lysozyme + 2D-ribose − 2H2O (14,569 Da); for Peak area as % of total area of all glycoforms, 14,551: lysozyme + 2D-ribose − 3H2O (14,551 Da); for Peak area as % of total area of all glycoforms, 14,533: lysozyme + 2D-ribose − 5H2O (14,533 Da); for Peak area as % of total area of all glycoforms, 14,515: lysozyme + 2D-ribose − 6H2O (14,515 Da); for Peak area as % of total area of all glycoforms, 14,419: lysozyme + D-ribose − 2H2O (14,419 Da); for Peak area as % of total area of all glycoforms, 14,401: lysozyme + D-ribose − 3H2O (14,401 Da); for Peak area as % of total area of all glycoforms, 14,437: lysozyme + D-ribose − H2O (14,437 Da); for Peak area as % of total area of all glycoforms, 14,496: lysozyme + D-ribose − H2O with one carboxymethylated Lys residue (14,496 Da); for Peak area as % of total area of all glycoforms, 14,364: lysozyme with one carboxymethylated Lys residue (14,364 Da); for Peak area as % of total area of all glycoforms, 14,305: unmodified lysozyme (14,305 Da).
Protocol: The effect of anti-glycation agents on the accumulation of glycated forms (glycoforms) of protein was evaluated by using electrospray mass spectrometry (ESI-MS). As the molecular mass of BSA was too large to monitor the small mass changes of its glycoforms, lysozyme was incubated with D-ribose and anti-glycants. Lysozyme and its glycoforms were isolated by RP-HPLC and analyzed by mass spectrometry.
Samples of lysozyme (0.756 mM; 4.54 mM of Lys residues) and D-ribose (50 mM) were incubated in the presence and absence of the selected anti-glycation agents at 37° C. for 5 days and subjected to electrospray mass spectrometry (ESI-MS) in order to characterize the protein intermediates as well as carboxymethylated lysozyme. Prior to MS measurements, the proteins were isolated by reversed phase-HPLC and were semi-dried by freeze drying.

In turn, `O=c1oc2c(O)c(O)cc3c(=O)oc4c(O)c(O)cc1c4c23` [Ellagic acid] showed an IC50 in series [1] of 40 µM. The Unreacted amino group in series [2] is given as 52%. In addition, in series [3], the “Peak area as % of total area of all glycoforms, 14,569” value (shortened to “Peak area as % of total area … 14,569”) is reported as 0.0%; the “Peak area as % of total area of all glycoforms, 14,551” value (shortened to “Peak area as % of total area … 14,551”) came out at 0.0%; the “Peak area as % of total area of all glycoforms, 14,533” value (shortened to “Peak area as % of total area … 14,533”) worked out at 0.0%; the “Peak area as % of total area of all glycoforms, 14,515” value (shortened to “Peak area as % of total area … 14,515”) worked out at 0.0%. Further, in series [3], the “Peak area as % of total area of all glycoforms, 14,419” value (shortened to “Peak area as % of total area … 14,419”) is 1.2%; the “Peak area as % of total area of all glycoforms, 14,401” value (shortened to “Peak area as % of total area … 14,401”) is 0.0%; the “Peak area as % of total area of all glycoforms, 14,437” value (shortened to “Peak area as % of total area … 14,437”) stood at 14.6%; the “Peak area as % of total area of all glycoforms, 14,496” value (shortened to “Peak area as % of total area … 14,496”) is reported as 0.0%. Also, in series [3], the “Peak area as % of total area of all glycoforms, 14,364” value (shortened to “Peak area as % of total area … 14,364”) is reported as 1.1% and the “Peak area as % of total area of all glycoforms, 14,305” value (shortened to “Peak area as % of total area … 14,305”) worked out at 83.1%.

In series [1], `NCCc1ccc(O)c(O)c1` [Dopamine] gave an IC50 of 62 µM. The same compound gave an Unreacted amino group in series [2] of 60%. In series [3], the “Peak area as % of total area … 14,569” value was found to be 1.2%; the “Peak area as % of total area … 14,551” value came to 0.0%; the “Peak area as % of total area … 14,533” value came to 0.0%; the “Peak area as % of total area … 14,515” value was found to be 0.0%. Further, in series [3], the “Peak area as % of total area … 14,419” value was determined as 1.6%; the “Peak area as % of total area … 14,401” value turned out to be 1.3%; the “Peak area as % of total area … 14,437” value stood at 13.4%; the “Peak area as % of total area … 14,496” value amounted to 0.0%. Further, in series [3], the “Peak area as % of total area … 14,364” value was 3.3% and the “Peak area as % of total area … 14,305” value came to 79.2%.

`CCCOC(=O)c1cc(O)c(O)c(O)c1` [Propyl gallate]: the IC50 in series [1] worked out at 330 µM. The same compound yielded an Unreacted amino group in series [2] of 28%. In series [3], the “Peak area as % of total area … 14,569” value was 0.0%; the “Peak area as % of total area … 14,551” value turned out to be 0.0%; the “Peak area as % of total area … 14,533” value was 0.0%; the “Peak area as % of total area … 14,515” value worked out at 0.0%. Also, in series [3], the “Peak area as % of total area … 14,419” value is 1.3%; the “Peak area as % of total area … 14,401” value is on record as 0.0%; the “Peak area as % of total area … 14,437” value was 7.7%; the “Peak area as % of total area … 14,496” value amounted to 0.0%. In series [3], the “Peak area as % of total area … 14,364” value is on record as 4.4% and the “Peak area as % of total area … 14,305” value was found to be 86.6%.

In series [1], `CS(=O)(=O)Nc1ccc([N+](=O)[O-])cc1Oc1ccccc1` [Nimesulide] showed an IC50 of 350 µM. This compound displayed an Unreacted amino group in series [2] of 69%. In series [3], the “Peak area as % of total area … 14,569” value is reported as 5.2%; the “Peak area as % of total area … 14,551” value worked out at 3.8%; the “Peak area as % of total area … 14,533” value turned out to be 2.3%; the “Peak area as % of total area … 14,515” value was determined as 1.3%. In addition, in series [3], the “Peak area as % of total area … 14,419” value was 7.6%; the “Peak area as % of total area … 14,401” value is on record as 0.0%; the “Peak area as % of total area … 14,437” value was 22.6%; the “Peak area as % of total area … 14,496” value turned out to be 0.0%. Further, in series [3], the “Peak area as % of total area … 14,364” value is given as 3.4% and the “Peak area as % of total area … 14,305” value is recorded as 49.8%.

Regarding `O=c1cc(-c2ccccc2)oc2cc(O)c(O)c(O)c12` [Baicalein], in series [1], the IC50 was 49 µM. Besides, the Unreacted amino group in series [2] was 48%. In addition, in series [3], the “Peak area as % of total area … 14,569” value is 0.0%; the “Peak area as % of total area … 14,551” value stood at 0.0%; the “Peak area as % of total area … 14,533” value was 0.0%; the “Peak area as % of total area … 14,515” value was 0.0%. Besides, in series [3], the “Peak area as % of total area … 14,419” value was 0.0%; the “Peak area as % of total area … 14,401” value amounted to 0.0%; the “Peak area as % of total area … 14,437” value was 5.9%; the “Peak area as % of total area … 14,496” value came to 0.0%. Besides, in series [3], the “Peak area as % of total area … 14,364” value turned out to be 0.0% and the “Peak area as % of total area … 14,305” value is on record as 94.1%.

The compound `O=C1C=C(O)C(=O)c2ccccc21` [Lawsone] displayed a half-maximal inhibitory concentration (IC50) in series [1] of 190 µM. The compound further showed an Unreacted amino group in series [2] of 44%. Further, in series [3], the “Peak area as % of total area … 14,569” value worked out at 0.0%; the “Peak area as % of total area … 14,551” value was 0.0%; the “Peak area as % of total area … 14,533” value amounted to 0.9%; the “Peak area as % of total area … 14,515” value is 0.8%. Also, in series [3], the “Peak area as % of total area … 14,419” value was 4.9%; the “Peak area as % of total area … 14,401” value is 0.0%; the “Peak area as % of total area … 14,437” value is given as 9.5%; the “Peak area as % of total area … 14,496” value came to 0.0%. Besides, in series [3], the “Peak area as % of total area … 14,364” value is listed as 7.5% and the “Peak area as % of total area … 14,305” value was 74.3%.

In series [1], `C[C@](N)(Cc1ccc(O)c(O)c1)C(=O)O` [L-α-Methyl-DOPA] displayed a concentration for half-maximal inhibition (IC50) of 73 µM. Moreover, the Unreacted amino group in series [2] stood at 47%. Moreover, in series [3], the “Peak area as % of total area … 14,569” value came to 2.7%; the “Peak area as % of total area … 14,551” value turned out to be 0.5%; the “Peak area as % of total area … 14,533” value worked out at 0.1%; the “Peak area as % of total area … 14,515” value worked out at 0.5%. In series [3], the “Peak area as % of total area … 14,419” value is 1.5%; the “Peak area as % of total area … 14,401” value amounted to 2.1%; the “Peak area as % of total area … 14,437” value is listed as 18.3%; the “Peak area as % of total area … 14,496” value is 1.0%. In addition, in series [3], the “Peak area as % of total area … 14,364” value is listed as 3.5% and the “Peak area as % of total area … 14,305” value is reported as 69.4%.

Consider `O=c1cc(-c2ccc(O)c(O)c2)oc2cc(O)cc(O)c12` [Luteolin], for which half-maximal inhibition in series [1] (IC50) was put at 60 µM. The Unreacted amino group in series [2] is 60%. Further, in series [3], the “Peak area as % of total area … 14,569” value came out at 5.2%; the “Peak area as % of total area … 14,551” value is reported as 3.0%; the “Peak area as % of total area … 14,533” value was found to be 3.9%; the “Peak area as % of total area … 14,515” value is on record as 1.4%. Moreover, in series [3], the “Peak area as % of total area … 14,419” value was found to be 6.3%; the “Peak area as % of total area … 14,401” value was 2.1%; the “Peak area as % of total area … 14,437” value is given as 21.2%; the “Peak area as % of total area … 14,496” value was found to be 0.8%. Also, in series [3], the “Peak area as % of total area … 14,364” value was found to be 1.1% and the “Peak area as % of total area … 14,305” value is reported as 51.4%.

Take `O=Cc1ccc(O)c(O)c1` [3,4-Dihydroxybenzaldehyde]: in series [1], the IC50 worked out at 120 µM. In addition, the Unreacted amino group in series [2] is 32%. Also, the “effect on protection of amino groups of BSA” value in series [2] (in words) is listed as “seem to accelerate the modification of the amino groups”. Also, in series [3], the “Peak area as % of total area … 14,569” value is 1.8%; the “Peak area as % of total area … 14,551” value was 3.0%; the “Peak area as % of total area … 14,533” value is 0.0%; the “Peak area as % of total area … 14,515” value turned out to be 1.2%. For the same compound, in series [3], the “Peak area as % of total area … 14,419” value came to 3.1%; the “Peak area as % of total area … 14,401” value turned out to be 0.0%; the “Peak area as % of total area … 14,437” value is listed as 10.9%; the “Peak area as % of total area … 14,496” value stood at 1.5%. In series [3], the “Peak area as % of total area … 14,364” value was 0.0% and the “Peak area as % of total area … 14,305” value is 78.6%.

Regarding `O=C1OC(CN2CCOCC2)CN1/N=C/c1ccc([N+](=O)[O-])o1` (centres unmarked) [Furaltadone], in series [1], the IC50 stood at 41 µM and the “maximum percentage of the inhibition” value amounted to 30%). The compound further came in with an Unreacted amino group in series [2] of 60%. Moreover, in series [3], the “Peak area as % of total area … 14,569” value is 4.5%; the “Peak area as % of total area … 14,551” value is 2.7%; the “Peak area as % of total area … 14,533” value amounted to 1.1%; the “Peak area as % of total area … 14,515” value was 0.0%. In series [3], the “Peak area as % of total area … 14,419” value came out at 6.3%; the “Peak area as % of total area … 14,401” value amounted to 0.0%; the “Peak area as % of total area … 14,437” value was found to be 23.9%; the “Peak area as % of total area … 14,496” value is 0.0%. In series [3], the “Peak area as % of total area … 14,364” value stood at 0.9% and the “Peak area as % of total area … 14,305” value worked out at 60.6%.

What is called IC50 is the concentration needed to halve the response being measured. Lower therefore signals greater potency in that assay.
